# Experimental data: patent US20260284051A1, “METHIONINE ADENOSYLTRANSFERASE 2A (MAT2A) INHIBITOR COMBINATIONS AND USES THEREOF” (INSILICO MEDICINE IP LIMITED, priority 2023, published 2026)
# What was measured:
# KP4 MTAP null xenografts = experiment: Efficacy study of KP-4 human pancreatic cancer xenograft model in NOD SCID mice; type: in vivo; settings: for Tumor volume (mm^3) Final (mean): Mean ± SD
# Method: Efficacy Study of KP-4 Human Pancreatic Cancer Xenograft Model in NOD SCID Mice
# The KP-4 tumor cell line was maintained in vitro as monolayer culture in RPMI 1640 medium supplemented with 10% fetal bovine serum at 37° C. in an atmosphere of […] in air. The tumor cells were routinely subculture weekly by trypsin-EDTA treatment, not to exceed 4-5 passages. The cells growing in an exponential growth phase was harvested and counted for tumor inoculation.
# Each mouse was inoculated subcutaneously on the central right flank with KP-4 tumor cells (1×10^7) in 0.1 mL of RPMI-1640 without serum for the tumor development. The treatment started when the mean tumor size reached approximately 100 mm^3. Mice were assigned to groups such that the mean tumor volume is the same for each treatment group and time point.
# For routine monitoring, all study animals were monitored for not only tumor growth but also behavior such as mobility, food, and water consumption (by cage side checking only), body weight (BW), eye/hair matting and any other abnormal effect. Any mortality and/or abnormal clinical signs were recorded.
# Body weights of all animals were measured twice a week throughout the study. Body weight change, expressed in %, will be calculated using the following formula: BW change (%)=(BWDay x/BWDay 0)×100, where BWDay x is BW on a given day, and BWDay 0 is BW on Day 0 (initiation of treatment).
# The measurement of tumor size were conducted twice a week with a caliper and the tumor volume (mm^3) was estimated using the formula: TV=a×b^2/2, where a and b are long and short diameters of a tumor, respectively. The TVs were used for calculation of the tumor growth inhibition (TGI, an indicator of antitumor effectiveness) value using the formula: TGI (%)=[1−(Tn−T0)/(Cn−C0)]×100%, only over the dosing period (dosing days 0 to days n). Where: Tn—is the avg tumor volume at the respective day “n” after dosing throughout treatment period; T0—is the avg tumor volume in the treatment group at day 0 before treatment (immediately before); Cn—avg tumor volume in the control group at the respective day “n” after dosing throughout treatment period; and C0—average tumor volume in the control group at day 0 before treatment (immediately before). The experiment was terminated when the mean tumor volume exceeded 2000 mm^3 or severe body weight loss.
# The statistical software GraphPad Prism (version number: 8) was used to analyze the difference in tumor volume between the treatment group and the solvent control group. Two-way ANOVA and Bonferroni multiple tests were used to compare whether there was a significant difference in tumor volume between the vehicle control group and each treatment group during the administration period.
# (§1) Mean tumor volume at dosing start was approximately 102 mm^3, with ten mice randomized to each treatment group. In the KP4 MTAP null tumor model, mice were dosed orally, once per day (QD) with Vehicle, once per day (QD) with Compound 1 at 1, 3 mg/kg, once per day (QD) with AG270 at 100 mg/kg, mice were intravenous, per week with Docetaxel at 2.5 mg/kg, or Compound 1 combined with Docetaxel at each dose level.
# [1] = system: HCC15 MTAP null xenografts; experiment: Efficacy study of HCC15 human lung cancer xenograft model in NOD SCID mice; type: in vivo; settings: for Tumor volume (mm^3) Final (mean): Mean ± SD
# Method: Efficacy Study of HCC15 Human Lung Cancer Xenograft Model in NOD SCID Mice Methods:
# The HCC15 cells were maintained in vitro as a monolayer culture in 90% 1640+10% FBS, 100U/ml penicillin and 100 μg/ml streptomycin at 37° C. in an atmosphere of 5% CO2 in air. The tumor cells were routinely subcultured at a ratio of 1:2 to 1:3 every 3-4 days. Alternatively, Cultures were maintained by addition or replacement of fresh medium. Started cultures at 5×10^5 cells/mL and maintained between 0.5×10^5 and 2×10^6 cells/ml.
# NOD SCID mice, female, 6-8 weeks, weighing approximately 20-22 g.
# Each mouse were inoculated subcutaneously at the right flank with HCC15 cells in a 0.2 mL mixture of 1640 for tumor development (5×10^6 cells/mouse). Dosing was started when the average tumor size reaches approximately 100-200 mm^3 for the tumor efficacy study with tool and med chem molecules to look for efficacy vs vehicle tumor growth.
# as §1, with “133.09” for “102”, “HCC15” for “KP4”, “at” for “at 1,”
# [2] = Docetaxel 2.5 mg/kg intravenous per week
Compound,TGI (%) (KP4 MTAP null xenografts; [2]),Tumor volume (mm^3) Final (mean) (KP4 MTAP null xenografts; [2]),"TGI (%) [1, 2] [%]","Tumor volume (mm^3) Final (mean) [1, 2] [mm^3]",TGI (%) (KP4 MTAP null xenografts; AG270 100 mg/kg orally QD),Tumor volume (mm^3) Final (mean) (KP4 MTAP null xenografts; AG270 100 mg/kg orally QD),"TGI (%) ([1]; AG270 100 mg/kg orally QD, 100 mg/kg)",Tumor volume (mm^3) Final (mean) ([1]; AG270 100 mg/kg orally QD) [mm^3]
"CC(=O)O[C@@]12CO[C@@H]1C[C@H](O)[C@@]1(C)C(=O)[C@H](O)C3=C(C)[C@@H](OC(=O)[C@H](O)[C@@H](NC(=O)OC(C)(C)C)c4ccccc4)C[C@@](O)([C@@H](OC(=O)c4ccccc4)[C@H]21)C3(C)C [Docetaxel, docetaxel, reference compound]",51.6,"1,159 ± 129 mm^3",58.5,515 ± 36,,,,
AG270 [reference compound],,,,,55.7,"1,070 ± 132 mm^3",55.3,544 ± 30
